Assay results: patent US9018175B2 (Takeda GmbH, priority 2009, dated 2015)

What was measured:
human PDE5 = target: T1, human PDE5 (Homo sapiens, UniProt O76074); assay: Inhibition of PDE5 activity (SPA, [3H]cGMP, platelet lysate); assay type: biochemical; conditions: PDE5 from human platelet lysate; values given as bins; read-out: PDE5A inhibitory values measured as −logIC50 (converted)
T1 construct: from tissue; host or cells: human platelets from fresh donor blood (10,000 g supernatant of sonicated platelets)
Protocol: As a source for human PDE5, platelets are used. For that purpose, 150 ml fresh blood from human donors anticoagulated with citrate [final concentration 0.3% (w/v)] is centrifuged at 200 g for 10 min to obtain the so-called platelet-rich-plasma (PRP) as a supernatant. 1/10 volume of ACD solution (85 mM Na3-citrate, 111 mM D-glucose, 71 mM citric acid, pH 4.4) is added to 9/10 volume of PRP. After centrifugation (1,400 g, 10 min) the cell pellet is resuspended in 3 ml homogenization buffer (NaCl 140 mM, KCl 3.8 mM, EGTA (ethylene glycol tetraacetic acid) 1 mM, MgCl2 1 mM, Tris-HCl 20 mM, beta-mercaptoethanol 1 mM, pH 8.2) plus protease-inhibitor mix giving rise to the final concentrations of 0.5 mM Pefablock (Roche), 10 μM Leupeptin, 5 μM Trypsininhibitor, 2 mM Benzamidin and 10 μM Pepstatin A. The suspension is sonified and thereafter centrifuged for 15 min at 10,000 g. The resulting supernatant (platelet lysate) is used for enzymatic testings.
PDE5 activities were measured in a 96-well platform using SPA (scintillation proximity assay) yttrium silicate beads (RPNQ1050 from GE Healthcare). In a first step the PDE activity operates hydrolysis of either [^3H] cGMP (substrate) into [^3H] 5′GMP. In a second step substrate and product are distinguished following addition of SPA yttrium silicate beads. Indeed, in the presence of zinc sulphate the linear [^3H] […] Close proximity of bound [^3H] […] The test volume is 100 pl and contains 20 mM Tris buffer (pH 7.4), 0.1 mg of BSA (bovine serum albumin)/ml, 5 mM Mg^2+, 1 μM motapizone (PDE3 Inhibitor), 10 nM PDE2 inhibitor 2-(3,4-dimethoxybenzyl)-7-[(1R,2R)-2-hydroxy-1-(2-phenylethyl)propyl]-5-methylimidazo[5,1-f][1,2,4]triazin-4(3H)-one, […] (cyclic guanosine monophosphate) (including about 50,000 cpm of [3H]cGMP as a tracer), 1 pl of the respective compound dilution in dimethylsulfoxide (DMSO) and sufficient PDE5-containing platelet lysat (10,000, g supernatant, see above) to ensure that 10-20 wt % of the cGMP is converted under the said experimental conditions. […] After a preincubation of 5 min at 37° C., the reaction is started by adding the substrate (cGMP) and the assay is incubated for a further 15 min; after that, it is stopped by adding SPA beads (50 pl). In accordance with the manufacturer's instructions, the SPA beads had previously been resuspended in water, but are then diluted 1:3 (v/v) in water; the diluted solution also contains 3 mM […]3-isobutyl-1-methylxanthine (IBMX) to ensure a complete PDE activity stop. After the beads have been sedimented (>30 min), the MTP's are analyzed in commercially available luminescence detection devices. The corresponding IC50 values of the compounds for the inhibition of PDE activity are determined from the concentration-effect curves by means of non-linear regression.

PDE4B1 = target: T2, PDE4B1 (Homo sapiens, UniProt Q07343); assay: Inhibition of PDE4B1 activity (SPA, [3H]cAMP); assay type: biochemical; conditions: recombinant PDE4B1 expressed in SF21 cells; 0.5 pM [sic] cAMP; values given as bins; read-out: PDE4B1 inhibitory values measured as −logIC50 (converted)
T2 construct: made in house; host or cells: SF21 insect cells (baculovirus; pCR-Bac vector)
T2 sequence (Q07343 whole entry): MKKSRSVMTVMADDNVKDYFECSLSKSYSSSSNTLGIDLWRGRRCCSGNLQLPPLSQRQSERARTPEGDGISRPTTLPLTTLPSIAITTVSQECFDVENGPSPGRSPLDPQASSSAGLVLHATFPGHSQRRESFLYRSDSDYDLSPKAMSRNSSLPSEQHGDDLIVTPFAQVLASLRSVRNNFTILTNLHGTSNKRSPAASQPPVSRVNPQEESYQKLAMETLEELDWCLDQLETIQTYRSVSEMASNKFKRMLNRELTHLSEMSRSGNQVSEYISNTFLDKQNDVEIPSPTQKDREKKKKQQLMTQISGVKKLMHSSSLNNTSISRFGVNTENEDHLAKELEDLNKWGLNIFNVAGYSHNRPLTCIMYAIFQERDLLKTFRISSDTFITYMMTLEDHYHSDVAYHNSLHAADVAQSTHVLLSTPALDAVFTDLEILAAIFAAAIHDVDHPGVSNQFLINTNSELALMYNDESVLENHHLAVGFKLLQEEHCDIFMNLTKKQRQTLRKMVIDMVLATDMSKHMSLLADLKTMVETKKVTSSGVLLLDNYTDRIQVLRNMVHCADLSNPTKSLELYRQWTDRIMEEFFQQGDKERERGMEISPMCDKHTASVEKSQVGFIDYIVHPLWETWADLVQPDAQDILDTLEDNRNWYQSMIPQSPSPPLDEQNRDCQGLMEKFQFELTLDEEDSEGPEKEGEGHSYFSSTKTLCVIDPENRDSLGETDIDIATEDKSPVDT
Protocol: The PDE4B1 (GB no. L20966) was a gift of Prof. M. Conti (Stanford University, USA). It was amplified from the original plasmid (pCMV5) via PCR with primers Rb18 (5′-[…]-3′) and Rb10 (5′-[…]-3′) and cloned into the pCR-Bac vector (Invitrogen, Groningen, NL).
The recombinant baculovirus was prepared by means of homologous recombination in SF9 insect cells. The expression plasmids were cotransfected with Baculo-Gold DNA (Pharmingen, Hamburg) using a standard protocol (Pharmingen, Hamburg). Wt virus-free recombinant virus supernatants were selected using plaque assay methods. After that, high-titre virus supernatants were prepared by amplifying 3 times. PDE4B1 was expressed in SF21 cells by infecting 2×10^6 cells/ml with an MOI (multiplicity of infection) between 1 and 10 in the serum-free medium Insect Express Sf9-S2 (PAA, Pasching, Austria). The cells were cultured at 28° C. for 48-72 hours, after which they were pelleted for 5-10 min at 1000×g and 4° C.
The SF21 insect cells were resuspended, at a concentration of approx. 10^7 cells/ml, in ice-cold (4° C.) homogenization buffer (20 mM Tris, pH 8.2, containing the following additions: 140 mM NaCl, 3.8 mM KCl, 1 mM EGTA, 1 mM MgCl2, 10 mM e-mercaptoethanol, 2 mM benzamidine, 0.4 mM Pefablock, 10 pM leupeptin, 10 pM pepstatin A, 5 pM trypsin inhibitor) and disrupted by ultrasonication. The homogenate was then centrifuged for 10 min at 1000, g and the supernatant was stored at −80° C. until subsequent use (see below). The protein content was determined by the Bradford method (BioRad, Munich) using BSA as the standard.
PDEB1 activities were measured in a 96-well platform using SPA (scintillation proximity assay) yttrium silicate beads (RPNQ1050 from GE Healthcare). In a first step the PDE activity operates hydrolysis of either [^3H] cAMP (substrate) into [^3H] 5′AMP. In a second step substrate and product are distinguished following addition of SPA yttrium silicate beads. Indeed, in the presence of zinc sulphate the linear [^3H] […] Close proximity of bound [^3H] […] The test volume is 100 pl and contains 20 mM Tris buffer (pH 7.4), 0.1 mg/ml of BSA, 5 mM Mg^2+, […] (including about 50,000 cpm of [3H]cAMP), 1 pl of the respective substance dilution in DMSO and sufficient recombinant PDE (1000, g supernatant, see above) to ensure that 10-20% of the cAMP is converted under the said experimental conditions. […] After a preincubation of 5 min at 37° C., the reaction is started by adding the substrate (cAMP) and the assays are incubated for a further 15 min; after that, they are stopped by adding SPA beads (50 pl). In accordance with the manufacturer's instructions, the SPA beads had previously been resuspended in water, but were then diluted 1:3 (v/v) in water; the diluted solution also contains 3 mM IBMX to ensure a complete PDE activity stop. After the beads have been sedimented (>30 min), the MTP's are analyzed in commercially available luminescence detection devices. The corresponding IC50 values of the compounds for the inhibition of PDE4B1 activity are determined from the concentration-effect curves by means of non-linear regression.

SMILES	IC50 (human PDE5) [nM]	IC50 (PDE4B1) [nM]
CCOc1cc2c(cc1OC)C(c1ccc(C(=O)N3CCC(n4c(=O)c5sc(-c6ccccc6)cc5n(Cc5nnn(CC)n5)c4=O)CC3)cc1)=NC1CC[S+]([O-])CC21 (single isomer, unassigned) [Example 24]	< 10	> 10
CCOc1cc2c(cc1OC)C(c1ccc(C(=O)N3CCC(n4c(=O)c5sc(-c6ccccc6)cc5n(Cc5ncc(CC)o5)c4=O)CC3)cc1)=N[C@@H]1CCSC[C@H]21 [Example 1, 3-[1-({4-[(4aR,10bR)-9-ethoxy-8-methoxy-3,4,4a,10b-tetrahydro-1H-thiopyrano[4,3-c]isoquinolin-6-yl]phenyl}carbonyl)piperidin-4-yl]-1-[(5-ethyl-1,3-oxazol-2-yl)methyl]-6-phenylthieno[3,2-d]pyrimidine-2,4(1H,3H)-dione]	< 10	1 to 10
CCOc1cc2c(cc1OC)C(c1ccc(C(=O)N3CCC(n4c(=O)c5sc(-c6ccccc6)cc5n(Cc5noc(C)n5)c4=O)CC3)cc1)=N[C@@H]1CCSC[C@H]21 [Example 2, 3-[1-({4-[(4aR,10bR)-9-ethoxy-8-methoxy-3,4,4a,10b-tetrahydro-1H-thiopyrano[4,3-c]isoquinolin-6-yl]phenyl}carbonyl)piperidin-4-yl]-1-[(5-methyl-1,2,4-oxadiazol-3-yl)methyl]-6-phenylthieno[3,2-d]pyrimidine-2,4(1H,3H)-dione]	< 10	1 to 10
CCOc1cc2c(cc1OC)C(c1ccc(C(=O)N3CCC(n4c(=O)c5sc(-c6ccccc6)cc5n(Cc5cc(CC)no5)c4=O)CC3)cc1)=N[C@@H]1CCSC[C@H]21 [Example 3, 3-[1-({4-[(4aR,10bR)-9-ethoxy-8-methoxy-3,4,4a,10b-tetrahydro-1H-thiopyrano[4,3-c]isoquinolin-6-yl]phenyl}carbonyl)piperidin-4-yl]-1-[(3-ethylisoxazol-5-yl)methyl]-6-phenylthieno[3,2-d]pyrimidine-2,4(1H,3H)-dione]	< 10	1 to 10
CCOc1cc2c(cc1OC)C(c1ccc(C(=O)N3CCC(n4c(=O)c5sc(-c6ccccc6)cc5n(Cc5nnc(CC)o5)c4=O)CC3)cc1)=N[C@@H]1CCSC[C@H]21 [Example 4, 3-[1-({4-[(4aR,10bR)-9-ethoxy-8-methoxy-3,4,4a,10b-tetrahydro-1H-thiopyrano[4,3-c]isoquinolin-6-yl]phenyl}carbonyl)piperidin-4-yl]-1-[(5-ethyl-1,3,4-oxadiazol-2-yl)methyl]-6-phenylthieno[3,2-d]pyrimidine-2,4(1H,3H)-dione]	10 to 100	< 1
CCOc1cc2c(cc1OC)C(c1ccc(C(=O)N3CCC(n4c(=O)c5sc(-c6ccccc6)cc5n(Cc5nc(CC)co5)c4=O)CC3)cc1)=N[C@@H]1CCSC[C@H]21 [Example 5, 3-[1-({4-[(4aR,10bR)-9-ethoxy-8-methoxy-3,4,4a,10b-tetrahydro-1H-thiopyrano[4,3-c]isoquinolin-6-yl]phenyl}carbonyl)piperidin-4-yl]-1-[(4-ethyl-1,3-oxazol-2-yl)methyl]-6-phenylthieno[3,2-d]pyrimidine-2,4(1H,3H)-dione]	10 to 100	1 to 10
CCOc1cc2c(cc1OC)C(c1ccc(C(=O)N3CCC(n4c(=O)c5sc(-c6ccccc6)cc5n(Cc5cc(C)on5)c4=O)CC3)cc1)=N[C@@H]1CCSC[C@H]21 [Example 6, 3-[1-({4-[(4aR,10bR)-9-ethoxy-8-methoxy-3,4,4a,10b-tetrahydro-1H-thiopyrano[4,3-c]isoquinolin-6-yl]phenyl}carbonyl)piperidin-4-yl]-1-[(5-methylisoxazol-3-yl)methyl]-6-phenylthieno[3,2-d]pyrimidine-2,4(1H,3H)-dione]	10 to 100	1 to 10
CCOc1cc2c(cc1OC)C(c1ccc(C(=O)N3CCC(n4c(=O)c5sc(-c6ccccc6)cc5n(Cc5nc(CC)no5)c4=O)CC3)cc1)=N[C@@H]1CCSC[C@H]21 [Example 7, 3-(1-{4-[(4aR,10bR)-9-ethoxy-8-methoxy-3,4,4a,10b-tetrahydro-1H-thiopyrano[4,3-c]isoquinolin-6-yl]benzoyl}piperidin-4-yl)-1-[(3-ethyl-1,2,4-oxadiazol-5-yl)methyl]-6-phenylthieno[3,2-d]pyrimidine-2,4(1H,3H)-dione]	< 10	1 to 10
CCOc1cc2c(cc1OC)C(c1ccc(C(=O)N3CCC(n4c(=O)c5sc(-c6ccccc6)cc5n(Cc5nnc(COC)o5)c4=O)CC3)cc1)=N[C@@H]1CCSC[C@H]21 [Example 8, 3-[1-({4-[(4aR,10bR)-9-ethoxy-8-methoxy-3,4,4a,10b-tetrahydro-1H-thiopyrano[4,3-c]isoquinolin-6-yl]phenyl}carbonyl)piperidin-4-yl]-1-{[5-(methoxymethyl)-1,3,4-oxadiazol-2-yl]methyl}-6-phenylthieno[3,2-d]pyrimidine-2,4(1H,3H)-dione]	10 to 100	< 1
CCOc1cc2c(cc1OC)C(c1ccc(C(=O)N3CCC(n4c(=O)c5sc(-c6ccccc6)cc5n(Cc5cnc(CC)o5)c4=O)CC3)cc1)=N[C@@H]1CCSC[C@H]21 [Example 9, 3-[1-({4-[(4aR,10bR)-9-ethoxy-8-methoxy-3,4,4a,10b-tetrahydro-1H-thiopyrano[4,3-c]isoquinolin-6-yl]phenyl}carbonyl)piperidin-4-yl]-1-[(2-ethyl-1,3-oxazol-5-yl)methyl]-6-phenylthieno[3,2-d]pyrimidine-2,4(1H,3H)-dione]	10 to 100	1 to 10
